Reference: publication PMC9434621 (ACS Omega, 2022)

Experiments:
[1] = target: T1, bovine erythrocyte CA (Bos taurus, UniProt P00921); conditions: test concentration not given; Figure 2
[2] = target: T1, bovine erythrocyte CA; conditions: sample 0.5 mM in DMSO, 15 min incubation with enzyme at room temperature
[3] = target: T1, bovine erythrocyte CA; assay: biochemical

T1 sequence (P00921 whole entry): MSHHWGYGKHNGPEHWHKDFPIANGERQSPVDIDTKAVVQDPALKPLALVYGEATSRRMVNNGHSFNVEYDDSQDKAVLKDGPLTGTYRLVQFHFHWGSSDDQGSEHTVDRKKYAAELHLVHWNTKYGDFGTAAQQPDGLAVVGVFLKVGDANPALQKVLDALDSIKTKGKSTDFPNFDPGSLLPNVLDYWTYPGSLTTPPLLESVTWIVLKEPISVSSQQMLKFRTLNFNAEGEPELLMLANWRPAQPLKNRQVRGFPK

Compound	% inhibition [1]	enhancement of fluorescence signal after complex formation with CA [2]	IC50 [3]
CCCC1=NOC(=O)/C1=C/c1ccc(OC)cc1O [AC1, (E)-4-(2-Hydroxy-4-methoxybenzylidene)-3-propylisoxazol-5(4H)-one]	58.4%	–	–
CCCC1=NOC(=O)/C1=C/c1cccs1 [AC2, (E)-3-Propyl-4-(thiophen-2-ylmethylene) Isoxazol-5(4H)-one]	79.5%	significant fluorescence enhancement	112 ± 1.6 µM
CCCC1=NOC(=O)/C1=C/c1ccc(O)cc1 [AC4, (E)-4-(4-Hydroxybenzylidene)-3-propylisoxazol-5(4H)-one]	50.5%	–	–
(E)-4-(2-Methoxybenzylidene)-3-propylisoxazol-5(4H)-one [AC3]	68.7%	significant fluorescence enhancement	–
